Assay results published in PubChem BioAssay (NCI).
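In this assay, cells in 96-well plates receive the compound at five concentrations for 48 hours. Endpoints are linearly interpolated between the surrounding concentrations. GI50 marks 50% less growth. The concentration for full growth arrest is given as TGI.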

Columns and labels:
Assay in all cases: NCI tumour cell line growth inhibition, 48 h
DLD-1 colon = tested on: DLD-1 colon
DMS 114 small cell lung = tested on: DMS 114 small cell lung
DMS 273 small cell lung = tested on: DMS 273 small cell lung
HOP-18 NSCLC = tested on: HOP-18 NSCLC
LXFL 529 NSCLC = tested on: LXFL 529 NSCLC
M19-MEL melanoma = tested on: M19-MEL melanoma
SNB-78 CNS = tested on: SNB-78 CNS
P388 leukemia = tested on: P388 leukemia
SN12K1 renal = tested on: SN12K1 renal
XF 498 CNS = tested on: XF 498 CNS
P388/ADR leukemia = tested on: P388/ADR leukemia
RXF-631 renal = tested on: RXF-631 renal

| SMILES | TGI (DLD-1 colon) | TGI (DMS 114 small cell lung) | TGI (DMS 273 small cell lung) | TGI (HOP-18 NSCLC) | TGI (LXFL 529 NSCLC) | TGI (M19-MEL melanoma) | TGI (SNB-78 CNS) | TGI (P388 leukemia) | TGI (SN12K1 renal) | TGI (XF 498 CNS) | TGI (P388/ADR leukemia) | GI50 (DMS 114 small cell lung) | TGI (RXF-631 renal) |
| --- | --- | --- | --- | --- | --- | --- | --- | --- | --- | --- | --- | --- | --- |
| [N-]=[N+]=NC(c1cn(C2CC(O)C(CO)O2)c(=O)[nH]c1=O)C(I)I (configuration not stated) | > 100 µM | > 100 µM | > 100 µM | > 100 µM | > 100 µM | > 100 µM | > 100 µM |  |  |  |  |  |  |
| N/C(=N\N=C/c1cc(Cl)cc(Cl)c1O)NO | > 100 µM |  | 11.9 µM | > 100 µM |  | 27 µM | > 100 µM | 1.49 µM | 6.93 µM | 6.45 µM |  |  |  |
| O=C(Cc1ccccc1)NN1C(=O)C(Cl)C1c1ccccc1 (configuration not stated) | > 100 µM | > 100 µM |  | > 100 µM | 50.5 µM | > 100 µM | > 100 µM |  |  | 45.2 µM |  |  |  |
| CC[S+](C)c1ccc(-c2c3nc(c(-c4ccc([S+](C)CC)cc4)c4ccc([nH]4)c(-c4ccc([S+](C)CC)cc4)c4nc(c(-c5ccc([S+](C)CC)cc5)c5ccc2[nH]5)C=C4)C=C3)cc1 (configuration not stated) |  |  | > 100 µM |  | > 100 µM | > 100 µM | > 100 µM |  |  | 8.31 µM |  |  |  |
| COC(=O)C[C@](O)(CCC(C)(C)O)C(=O)O[C@@H]1C(OC)=C[C@]23CCCN2CCc2cc4c(cc2[C@H]13)OCO4 |  | 0.0597 µM | 0.131 µM | 0.756 µM |  | 0.363 µM | 1.04 µM | 0.133 µM | 0.359 µM |  | > 100 µM |  |  |
| C=CC[C@@]1(C#N)C[C@H](C[C@]2(C#N)C[C@H](CCl)OC(C)(C)O2)OC(C)(C)O1 | > 100 µM | > 100 µM | > 100 µM | > 100 µM |  | > 100 µM |  |  |  | > 100 µM |  |  |  |
| Nc1nc(SCc2ccccc2[N+](=O)[O-])c2[nH]cnc2n1 | > 100 µM |  | > 100 µM |  | > 100 µM | > 100 µM | > 100 µM |  |  |  |  |  |  |
| O=c1cc(-c2ccc[nH]2)[nH]c2cc3c(cc12)OCO3 | > 100 µM | > 100 µM | > 100 µM |  | > 100 µM | > 100 µM |  |  |  | 89.2 µM |  | 32.5 µM | > 100 µM |
| CCOC(=O)CCc1c(C)c2c(O)cc(O)cc2oc1=O | > 100 µM |  | > 100 µM | > 100 µM |  | > 100 µM | > 100 µM | > 100 µM | > 100 µM | > 100 µM | > 100 µM |  |  |
| CCOC(=O)CC(=Nc1cc(C)on1)N(CC)CC | > 100 µM | > 100 µM | > 100 µM |  | > 100 µM | > 100 µM | > 100 µM |  |  | > 100 µM |  |  |  |
| Cc1ccc(C(=O)NC(C)C)cc1N=NN(C)C | > 100 µM |  | > 100 µM |  | > 100 µM | > 100 µM | > 100 µM |  |  |  |  |  |  |
| O=C(Nc1cc([N+](=O)[O-])cc([N+](=O)[O-])c1)OC1C2CCC1C1OC1C2 (configuration not stated) | > 50 µM | > 50 µM |  |  |  | > 50 µM | > 50 µM |  |  |  |  |  |  |
| COc1ccc2c(c1)Cc1c-2[nH]c2cc3c(cc2c1=O)OCO3 | 41.7 µM | 17.9 µM | 24.7 µM | 58.2 µM | > 100 µM | 34.3 µM | > 100 µM |  |  | 38.3 µM |  |  |  |
